Data on eleven molecules can be found in patent publication US9617267B2, “Compounds and methods for kinase modulation, and indications therefor” (Plexxikon Inc., priority 2009, dated 2017).

One data set deals with CYP3A4(BFC) (Homo sapiens (Human), UniProt P08684). The experiment in a line: CYP enzyme inhibition, fluorescent substrate BFC. Particulars: read-out: Cyp IC50 3A4(BFC); CYP3A4, substrate BFC. In short, it runs like this:
(§1)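 10-pt 1:1 serial dilution in co-factor mix (DMSO stock 100 mM); 10 min preincubation, 37 °C; reaction at 37 °C. Readout: fluorescent metabolite of probe substrate. IC50 from signal vs [compound].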

Another data set addresses CYP2C19 (Homo sapiens (Human), UniProt P33261). The experiment in a line: CYP enzyme inhibition, fluorescent substrate (CEC). Particulars: read-out: Cyp IC50 2C19; CYP2C19, substrate CEC. The method in brief:
as §1

The target in another data set is CYP2D6 (Homo sapiens (Human), UniProt P10635). The data set is described as follows: CYP enzyme inhibition, fluorescent substrate (AMMC). Particulars: read-out: Cyp IC50 2D6. It is filed as in vitro ADME. In short, it runs like this:
(§2)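 IC50 derived from loss of fluorescent metabolite across a 10-point 1:1 dilution series. CYP2D6: 1.5 pmol enzyme, 1.5 μM AMMC, 30 min at 37 °C, 409/530 nm; CYP1A2: 0.5 pmol, 5 μM CEC, 15 min, 409/460 nm. Compounds pre-incubated 10 min in NADPH-regenerating mix.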

The next data set concerns the target CYP3A4(BQ) (Homo sapiens (Human), UniProt P08684). The data set is described as follows: CYP enzyme inhibition, fluorescent substrate BQ. Particulars: read-out: Cyp IC50 3A4(BQ); CYP3A4, substrate BQ. The procedure: CYP (Cytochrome P450) enzymes are the major drug metabolizing enzymes present in the liver. The inhibition of CYP enzyme activity (IC50) for each of CYP1A2, CYP2C19, CYP2C9, CYP2D6, CYP3A4(BFC) and CYP3A4(BQ) is determined for compounds, where inhibition of metabolism of a known substrate leads to a decrease in the fluorescence of the metabolized product. The fluorescence of the product is monitored as a function of compound concentration.
Compounds are dissolved in dimethyl sulfoxide to a concentration of 100 mM. These are diluted 1 μL into 82 μL of acetonitrile. […] These are then serially diluted 1:1 (160 μL to 160 μL co-factor mix) for a total of 10 points. A 10 μL aliquot of this final mixture is dispensed into 384 well assay plates and incubated for 10 minutes at 37° C. […] Assay plates are incubated at 37° C. […] The signal versus compound concentration is used to determine the IC50. The enzymes and substrates for this assay are obtained from BD Biosciences.

In a further data set the target is CYP1A2 (Homo sapiens (Human), UniProt P05177). The experiment in a line: CYP enzyme inhibition, fluorescent substrate (CEC). The method in brief:
as §2

The target of the next data set is CYP2C9 (Homo sapiens (Human), UniProt P11712). The data set is described as follows: CYP enzyme inhibition, fluorescent substrate (MFC). In short, it runs like this: as §1
Chain of CYP2C9 (P11712 whole entry): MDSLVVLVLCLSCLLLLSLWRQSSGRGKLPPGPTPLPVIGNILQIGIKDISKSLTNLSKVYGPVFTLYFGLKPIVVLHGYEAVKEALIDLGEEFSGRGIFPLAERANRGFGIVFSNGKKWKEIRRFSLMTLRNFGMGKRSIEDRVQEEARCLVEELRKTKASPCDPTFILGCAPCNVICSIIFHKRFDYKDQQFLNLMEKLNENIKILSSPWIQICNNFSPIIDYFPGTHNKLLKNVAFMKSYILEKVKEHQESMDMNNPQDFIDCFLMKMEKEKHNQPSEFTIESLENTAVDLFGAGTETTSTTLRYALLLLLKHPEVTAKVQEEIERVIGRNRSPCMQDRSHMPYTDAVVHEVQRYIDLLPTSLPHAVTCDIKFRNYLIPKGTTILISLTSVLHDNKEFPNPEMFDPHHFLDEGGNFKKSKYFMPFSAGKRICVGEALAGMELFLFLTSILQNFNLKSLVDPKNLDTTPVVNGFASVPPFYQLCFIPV
Data set [1] is described as follows: Relative solubility by turbidity threshold concentration in aqueous buffers (pH 1.5, 4.5, 6.8, 7.4). It is filed as physicochemical. Particulars: for turbidity threshold (L, M, H) 1.4: pH 1.4 [sic] (method: SGF pH 1.5); for turbidity threshold (L, M, H) 4.5: pH 4.5 (SIF); for turbidity threshold (L, M, H) 6.8: pH 6.8 (SIF); for turbidity threshold (L, M, H) 7.4: pH 7.4 (HEPES). In short, it runs like this:
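Solubility class (high >250 μM, moderate 31.3–250 μM, low <31.3 μM) comes from the concentration where absorbance reaches a 0.01 threshold, averaged across 490/535/650 nm. Samples were compound dilutions from DMSO stock, 1 μL into 99 μL buffer at pH 1.5, 4.5, 6.8 or 7.4.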

The target in data set [2] is B-Raf (Homo sapiens (Human), UniProt P15056). The data set is described as follows: B-Raf kinase activity biochemical assay (AlphaScreen, biotin-MEK1 phosphorylation). Particulars: B-Raf. In short, it runs like this:
(§3)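 Compounds from a 0.1 mM DMSO stock were tested at 8 serially diluted points. Kinase reactions with 100 μM ATP (final) ran 45 min at room temperature, then were stopped with EDTA buffer containing anti-phospho-MEK1/2 antibody plus streptavidin donor and protein A acceptor beads.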
A general note: In Alpha technology, singlet oxygen from a donor bead excites a nearby acceptor bead.

The subject of data set [3] is B-Raf. Described as above. Particulars: for Biochemical activity ratio B/V600E: ratio of IC50 B-Raf / B-Raf V600E; for Biochemical activity ratio B/C: ratio of IC50 B-Raf / c-Raf-1. The method in brief:
as §3

Another data set has as its target B-Raf V600E (Homo sapiens (Human), UniProt P15056, V600E). The data set is described as follows: B-Raf V600E kinase activity biochemical assay (AlphaScreen, biotin-MEK1 phosphorylation). Particulars: for IC50: B-Raf V600E; for Biochemical activity ratio V600E/C: ratio of IC50 B-Raf V600E / c-Raf-1. In short, it runs like this: as §3
Another data set addresses c-Raf-1 (Homo sapiens, UniProt P04049). The experiment in a line: c-Raf-1 kinase activity biochemical assay (AlphaScreen, biotin-MEK1 phosphorylation). In short, it runs like this:
as §3

The mark [4] stands for this setting: read-out: Cyp IC50 2C9, CYP2C9, substrate MFC.

The IC50 is the midpoint of a concentration-inhibition curve.

Where two headings read alike, the source gives them in different places.

Chain of CYP3A4(BFC) (P08684 whole entry): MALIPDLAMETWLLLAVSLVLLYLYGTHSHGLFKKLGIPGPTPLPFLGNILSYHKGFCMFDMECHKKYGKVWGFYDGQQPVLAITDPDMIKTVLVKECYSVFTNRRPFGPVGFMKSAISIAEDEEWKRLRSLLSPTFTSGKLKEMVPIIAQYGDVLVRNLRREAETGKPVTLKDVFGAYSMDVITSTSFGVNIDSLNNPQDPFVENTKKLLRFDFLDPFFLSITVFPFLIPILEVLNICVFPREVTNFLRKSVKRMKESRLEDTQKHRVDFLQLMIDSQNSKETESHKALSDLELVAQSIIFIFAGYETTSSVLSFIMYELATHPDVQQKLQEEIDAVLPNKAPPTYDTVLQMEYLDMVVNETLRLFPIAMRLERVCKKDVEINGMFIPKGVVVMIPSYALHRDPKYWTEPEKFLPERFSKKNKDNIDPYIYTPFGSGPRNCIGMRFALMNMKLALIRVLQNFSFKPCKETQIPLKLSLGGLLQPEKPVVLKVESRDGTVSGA
Chain of CYP3A4(BQ) (P08684 whole entry): as above
Chain of c-Raf-1 (P04049 whole entry, looked up): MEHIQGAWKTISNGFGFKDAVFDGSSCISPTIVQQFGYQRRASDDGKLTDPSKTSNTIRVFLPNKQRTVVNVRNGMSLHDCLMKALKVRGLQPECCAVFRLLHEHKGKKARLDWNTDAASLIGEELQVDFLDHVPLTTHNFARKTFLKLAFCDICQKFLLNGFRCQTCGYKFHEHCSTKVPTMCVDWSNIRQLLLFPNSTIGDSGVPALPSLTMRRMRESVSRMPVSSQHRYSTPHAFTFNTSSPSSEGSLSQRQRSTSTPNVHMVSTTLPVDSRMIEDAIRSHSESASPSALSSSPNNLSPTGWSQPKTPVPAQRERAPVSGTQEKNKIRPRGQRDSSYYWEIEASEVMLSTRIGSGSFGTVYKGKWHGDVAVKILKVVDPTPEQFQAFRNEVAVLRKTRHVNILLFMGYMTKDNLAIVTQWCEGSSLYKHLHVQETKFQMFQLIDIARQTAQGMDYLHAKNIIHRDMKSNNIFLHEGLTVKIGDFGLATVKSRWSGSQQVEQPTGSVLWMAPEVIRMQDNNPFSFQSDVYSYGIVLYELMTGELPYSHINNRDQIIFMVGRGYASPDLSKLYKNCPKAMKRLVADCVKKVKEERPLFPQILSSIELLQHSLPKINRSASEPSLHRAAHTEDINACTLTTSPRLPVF
Chain of B-Raf (Homo sapiens (Human), UniProt P15056) (P15056 whole entry): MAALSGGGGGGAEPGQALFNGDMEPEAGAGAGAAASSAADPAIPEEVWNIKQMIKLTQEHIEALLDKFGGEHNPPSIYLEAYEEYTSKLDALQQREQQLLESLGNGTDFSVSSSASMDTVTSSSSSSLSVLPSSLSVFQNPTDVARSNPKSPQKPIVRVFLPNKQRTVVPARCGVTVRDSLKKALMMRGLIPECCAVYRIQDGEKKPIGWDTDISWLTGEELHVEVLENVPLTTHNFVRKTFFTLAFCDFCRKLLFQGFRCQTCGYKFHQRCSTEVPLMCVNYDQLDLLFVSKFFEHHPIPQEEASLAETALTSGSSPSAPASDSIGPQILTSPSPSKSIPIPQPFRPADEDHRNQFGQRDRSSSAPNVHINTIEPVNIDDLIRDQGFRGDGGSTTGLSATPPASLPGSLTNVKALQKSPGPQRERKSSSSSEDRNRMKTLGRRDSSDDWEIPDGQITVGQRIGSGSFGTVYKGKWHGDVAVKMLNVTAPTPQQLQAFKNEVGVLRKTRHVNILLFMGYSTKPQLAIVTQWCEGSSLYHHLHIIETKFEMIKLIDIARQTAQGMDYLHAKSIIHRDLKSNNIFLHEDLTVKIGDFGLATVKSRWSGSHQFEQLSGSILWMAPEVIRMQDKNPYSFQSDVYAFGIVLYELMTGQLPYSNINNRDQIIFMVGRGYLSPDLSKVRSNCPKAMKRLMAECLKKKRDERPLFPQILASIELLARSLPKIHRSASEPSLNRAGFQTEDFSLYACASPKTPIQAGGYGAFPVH
Chain of CYP1A2 (P05177 whole entry): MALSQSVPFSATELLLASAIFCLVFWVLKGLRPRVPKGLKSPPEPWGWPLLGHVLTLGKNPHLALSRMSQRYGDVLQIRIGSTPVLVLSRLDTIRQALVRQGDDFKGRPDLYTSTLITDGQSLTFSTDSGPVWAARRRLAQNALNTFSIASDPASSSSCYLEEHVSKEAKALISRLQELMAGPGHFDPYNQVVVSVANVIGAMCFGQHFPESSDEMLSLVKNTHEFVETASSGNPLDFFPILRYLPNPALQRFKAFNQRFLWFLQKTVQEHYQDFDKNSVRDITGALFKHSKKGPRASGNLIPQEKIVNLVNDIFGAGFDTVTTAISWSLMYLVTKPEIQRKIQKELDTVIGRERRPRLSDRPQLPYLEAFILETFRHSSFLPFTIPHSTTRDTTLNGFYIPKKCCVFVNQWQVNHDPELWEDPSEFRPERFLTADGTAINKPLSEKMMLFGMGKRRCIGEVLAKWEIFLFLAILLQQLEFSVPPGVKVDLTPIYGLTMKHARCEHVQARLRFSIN
Chain of B-Raf V600E (P15056 whole entry V600E): as the sequence (P15056 whole entry) above, with V600E counted along it
Chain of CYP2D6 (P10635 whole entry): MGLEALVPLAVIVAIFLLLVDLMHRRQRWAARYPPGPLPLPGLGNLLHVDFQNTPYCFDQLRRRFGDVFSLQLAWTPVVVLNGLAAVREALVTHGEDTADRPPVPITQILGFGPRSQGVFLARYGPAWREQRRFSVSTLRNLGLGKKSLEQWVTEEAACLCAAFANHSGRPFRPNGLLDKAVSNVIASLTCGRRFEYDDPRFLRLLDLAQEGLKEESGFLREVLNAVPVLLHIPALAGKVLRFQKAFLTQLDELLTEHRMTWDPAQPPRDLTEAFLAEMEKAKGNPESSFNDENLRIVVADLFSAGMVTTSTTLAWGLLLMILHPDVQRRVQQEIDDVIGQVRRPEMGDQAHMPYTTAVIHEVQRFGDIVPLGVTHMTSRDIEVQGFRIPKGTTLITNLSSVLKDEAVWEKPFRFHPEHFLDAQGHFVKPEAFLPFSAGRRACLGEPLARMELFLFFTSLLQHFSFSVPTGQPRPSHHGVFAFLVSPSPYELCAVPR
Chain of CYP2C19 (P33261 whole entry): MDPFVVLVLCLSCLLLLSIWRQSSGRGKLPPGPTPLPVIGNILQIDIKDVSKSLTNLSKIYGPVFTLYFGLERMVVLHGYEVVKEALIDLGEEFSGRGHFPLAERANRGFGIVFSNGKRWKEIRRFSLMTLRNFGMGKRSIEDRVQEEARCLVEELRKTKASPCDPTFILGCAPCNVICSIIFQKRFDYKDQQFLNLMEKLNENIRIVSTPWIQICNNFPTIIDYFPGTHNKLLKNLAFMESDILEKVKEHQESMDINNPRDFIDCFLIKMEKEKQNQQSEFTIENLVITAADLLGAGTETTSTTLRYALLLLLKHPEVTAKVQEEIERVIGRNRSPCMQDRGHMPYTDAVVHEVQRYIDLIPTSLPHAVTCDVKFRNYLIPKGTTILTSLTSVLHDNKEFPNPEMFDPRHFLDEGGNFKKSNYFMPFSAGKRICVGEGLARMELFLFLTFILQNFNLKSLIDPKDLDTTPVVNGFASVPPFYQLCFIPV

As for `CC(C)Nc1ncnc2[nH]cc(C(=O)c3c(F)ccc(NS(=O)(=O)c4cc(F)ccc4F)c3F)c12` [P-1111, N-[2,4-Difluoro-3-(4-isopropylamino-7H-pyrrolo[2,3-d]pyrimidine-5-carbonyl)-phenyl]-2,5-difluoro-benzenesulfonamide], the 50% inhibitory concentration (IC50) at CYP3A4(BFC) is over 10 µM; at CYP2C19, over 10 µM; at CYP2D6 it was over 10 µM; at CYP3A4(BQ), over 10 µM; on CYP1A2 (human, 15 min), over 10 µM; at CYP2C9 it was 5 to 10 µM.
With `COc1cccc(Nc2ncnc3[nH]cc(C(=O)c4c(F)ccc(NS(=O)(=O)c5ccccc5F)c4F)c23)c1` [P-1149, N-{2,4-Difluoro-3-[4-(3-methoxy-phenylamino)-7H-pyrrolo[2,3-d]pyrimidine-5-carbonyl]-phenyl}-2-fluoro-benzenesulfonamide], the concentration for half-maximal inhibition (IC50) is over 10 µM on CYP3A4(BFC); over 10 µM on CYP2C19; over 10 µM on CYP2D6; over 10 µM on CYP3A4(BQ); over 10 µM on CYP1A2 (human, 15 min); over 10 µM at CYP2C9 (setting [4]).
As for `COCCNc1ncnc2[nH]cc(C(=O)c3c(F)ccc(NS(=O)(=O)c4ccccc4F)c3F)c12` [P-1150, N-{2,4-Difluoro-3-[4-(2-methoxy-ethylamino)-7H-pyrrolo[2,3-d]pyrimidine-5-carbonyl]-phenyl}-2-fluoro-benzenesulfonamide], the IC50 is over 10 µM on CYP3A4(BFC); over 10 µM at CYP2C19; over 10 µM at CYP2D6; over 10 µM at CYP3A4(BQ); over 10 µM on CYP1A2 (human, 15 min); over 10 µM at CYP2C9 (setting [4]).
For the molecule `O=C(c1c(F)ccc(NS(=O)(=O)c2cc(F)ccc2F)c1F)c1c[nH]c2ncnc(NCC3CC3)c12` [P-1137, N-{3-[4-(Cyclopropylmethyl-amino)-7H-pyrrolo[2,3-d]pyrimidine-5-carbonyl]-2,4-difluoro-phenyl}-2,5-difluoro-benzenesulfonamide], the IC50 is over 10 µM on CYP3A4(BFC); over 10 µM at CYP2C19; over 10 µM at CYP2D6; over 10 µM on CYP3A4(BQ); over 10 µM against CYP1A2 (human, 15 min); over 10 µM at CYP2C9 (setting [4]).
Take `CCCS(=O)(=O)Nc1ccc(F)c(C(=O)c2c[nH]c3ncnc(NCc4ccccc4)c23)c1F` [P-1074, Propane-1-sulfonic acid [3-(4-benzylamino-7H-pyrrolo[2,3-d]pyrimidine-5-carbonyl)-2,4-difluoro-phenyl]-amide]: the IC50 on CYP3A4(BFC) was over 10 µM; on CYP2C19, over 10 µM; at CYP2D6, over 10 µM; on CYP3A4(BQ), over 10 µM; at CYP1A2 (human, 15 min), over 10 µM; on CYP2C9 (setting [4]), over 10 µM.
As for `CCn1cc(Nc2ncnc3[nH]cc(C(=O)c4c(F)ccc(NS(=O)(=O)c5cc(F)ccc5F)c4F)c23)cn1` [P-1142, N-{3-[4-(1-Ethyl-1H-pyrazol-4-ylamino)-7H-pyrrolo[2,3-d]pyrimidine-5-carbonyl]-2,4-difluoro-phenyl}-2,5-difluoro-benzenesulfonamide], the half-inhibitory concentration (IC50) on CYP3A4(BFC) was over 10 µM; at CYP2C19, over 10 µM; at CYP2D6 it was over 10 µM; on CYP3A4(BQ), over 10 µM; at CYP1A2 (human, 15 min) it was over 10 µM; on CYP2C9 (setting [4]), over 10 µM.
Regarding `CCn1cc(Nc2ncnc3[nH]cc(C(=O)c4c(F)ccc(NS(=O)(=O)c5ccccc5F)c4F)c23)cn1` [P-1153, N-{3-[4-(1-Ethyl-1H-pyrazol-4-ylamino)-7H-pyrrolo[2,3-d]pyrimidine-5-carbonyl]-2,4-difluoro-phenyl}-2-fluoro-benzenesulfonamide], the half-maximal inhibitory concentration (IC50) is over 10 µM at CYP3A4(BFC); over 10 µM at CYP2C19; over 10 µM on CYP2D6; over 10 µM on CYP3A4(BQ); over 10 µM at CYP1A2 (human, 15 min); over 10 µM at CYP2C9 (setting [4]).
For the molecule `COc1cccc(Nc2ncnc3[nH]cc(C(=O)c4c(F)ccc(NS(=O)(=O)c5cc(F)ccc5F)c4F)c23)c1` [P-1139, N-{2,4-Difluoro-3-[4-(3-methoxy-phenylamino)-7H-pyrrolo[2,3-d]pyrimidine-5-carbonyl]-phenyl}-2,5-difluoro-benzenesulfonamide], the IC50 on CYP3A4(BFC) was over 10 µM; on CYP2C19 it was over 10 µM; on CYP2D6 it was over 10 µM; on CYP3A4(BQ), over 10 µM; on CYP1A2 (human, 15 min), over 10 µM; on CYP2C9 (setting [4]), over 10 µM.
As to `CCCS(=O)(=O)Nc1ccc(F)c(C(=O)c2c[nH]c3ncnc(Cl)c23)c1F` [P-1033, Propane-1-sulfonic acid [3-(4-chloro-7H-pyrrolo[2,3-d]pyrimidine-5-carbonyl)-2,4-difluoro-phenyl]-amide], the IC50 on CYP3A4(BFC) was over 10 µM; on CYP2C19, over 10 µM; at CYP2D6, over 10 µM; against B-Raf [2], over 0.1 µM; against CYP1A2 (human, 15 min), over 10 µM; at B-Raf V600E, under 0.1 µM. For the same molecule, the IC50 was over 10 µM at CYP2C9 (setting [4]) and under 0.1 µM on c-Raf-1. Moreover, in [1], the “turbidity threshold (L, M, H) 1.4” value is reported as “H (high solubility if the threshold concentration is >250 μm)”. Moreover, in data set [1], the “turbidity threshold (L, M, H) 4.5” value was “H (high solubility if the threshold concentration is >250 μm)”. For the same molecule, in data set [1], the “turbidity threshold (L, M, H) 6.8” value is given as “H (high solubility if the threshold concentration is >250 μm)”. In addition, in [1], the “turbidity threshold (L, M, H) 7.4” value is “H (high solubility if the threshold concentration is >250 μm)”. Also, in the data set on B-Raf [3], the “Biochemical activity ratio B/V600E” value is 0.1-10. Also, in the data set with B-Raf [3], the “Biochemical activity ratio B/C” value is on record as over 10. Besides, on B-Raf V600E, the “Biochemical activity ratio V600E/C” value was 0.1-10.
Regarding `CCCc1ccc(S(=O)(=O)Nc2ccc(F)c(C(=O)c3c[nH]c4ncnc(O)c34)c2F)cc1` [P-1030, N-[2,4-Difluoro-3-(4-hydroxy-7H-pyrrolo[2,3-d]pyrimidine-5-carbonyl)-phenyl]-4-propyl-benzenesulfonamide], the half-maximal inhibitory concentration (IC50) was over 10 µM on CYP3A4(BFC); over 10 µM on CYP2C19; over 10 µM on CYP2D6; over 0.1 µM against B-Raf [2]; over 10 µM on CYP1A2 (read-out: Cyp IC50 1A2, CYP1A2, substrate CEC); over 0.1 µM against B-Raf V600E. Moreover, the IC50 on CYP2C9 (setting [4]) is over 10 µM; at c-Raf-1, under 0.1 µM. Besides, in data set [1], the “turbidity threshold (L, M, H) 4.5” value is “M (moderate solubility if the threshold concentration is 31.3 μM to 250 μM)”. The “turbidity threshold (L, M, H) 7.4” value in [1] is “M (moderate solubility if the threshold concentration is 31.3 μM to 250 μM)”. In addition, the “Biochemical activity ratio B/V600E” value in the data set with B-Raf [3] is on record as under 0.1. Moreover, the “Biochemical activity ratio B/C” value in the data set on B-Raf [3] is reported as 0.1-10. Also, the “Biochemical activity ratio V600E/C” value at B-Raf V600E is reported as over 10.
For the molecule `O=C(c1c(F)ccc(NS(=O)(=O)c2ccc(C(F)(F)F)cc2)c1F)c1c[nH]c2ncnc(Nc3ccccc3)c12` [P-1037, N-[2,4-Difluoro-3-(4-phenylamino-7H-pyrrolo[2,3-d]pyrimidine-5-carbonyl)-phenyl]-4-trifluoromethyl-benzenesulfonamide], the IC50 at CYP3A4(BFC) was over 10 µM; at CYP2C19 it was under 5 µM; at CYP2D6 it was over 10 µM; at B-Raf [2], under 0.1 µM; against CYP1A2 (human, 15 min) it was over 10 µM; against B-Raf V600E, over 0.1 µM. Further, the IC50 at CYP2C9 (setting [4]) is over 10 µM; against c-Raf-1, under 0.1 µM. In [1], the “turbidity threshold (L, M, H) 1.4” value is reported as “L (low solubility if the threshold concentration is <31.3 μM)”. Also, the “turbidity threshold (L, M, H) 4.5” value in data set [1] was “L (low solubility if the threshold concentration is <31.3 μM)”. The “turbidity threshold (L, M, H) 6.8” value in [1] is “L (low solubility if the threshold concentration is <31.3 μM)”. Besides, the “turbidity threshold (L, M, H) 7.4” value in data set [1] is recorded as “L (low solubility if the threshold concentration is <31.3 μM)”. For the same molecule, the “Biochemical activity ratio B/V600E” value with B-Raf [3] is given as 0.1-10. Besides, in the data set with B-Raf [3], the “Biochemical activity ratio B/C” value is listed as over 10. Also, the “Biochemical activity ratio V600E/C” value on B-Raf V600E is over 10.
